# Source: patent US20050032187A1, “Novel peptide-forming enzyme, microbe producing the enzyme and method for producing peptide using them” (Ajinomoto Co., Inc., priority 2003, published 2005)
# Residues, ends and D or L forms follow the SMILES beside them.
# Test system: Empedobacter brevis strain FERM BP-8113 microbial cells
# Assay: Production of peptide using microbial cells of Empedobacter brevis
# Format: cell-based
# Conditions: 1 mL of 100 g/L cell suspension + 1 mL buffer with 200 mM carboxy component (HCl salt) and 400 mM amino acid, 10 mM EDTA, pH 9.0, 18° C., 2 hours
# Protocol: Although the following provides a more detailed explanation of the present invention through its examples, the present invention is not limited to these examples. In addition to confirmation by ninhydrin coloring of thin-film chromatograms (qualitative), quantitative determinations were made by the following high-performance liquid chromatography in order to assay products. Column: […] ODS-2 (manufactured by GL Science, Inc.), eluate: aqueous phosphate solution containing 5.0 mM sodium 1-octanesulfonate (pH 2.1): methanol=100: 15 to 50, flow rate: 1.0 mL/min, detection: 210 nanometers (hereinafter, “nm”). A 50 mL medium (pH 6.2) containing 5 grams (hereinafter, “g”) of glucose, 5 g of ammonium sulfate, 1 g of monopotassium phosphate, 3 g of dipotassium phosphate, 0.5 g of magnesium sulfate, 10 g of yeast extract and 10 g of peptone in 1 liter (hereinafter, “L”) was transferred to a 500 mL Sakaguchi flask and sterilized at 115° C. for 15 minutes. This medium was then inoculated with one loopful of the culture broth of Empedobacter brevis strain FERM BP-8113 (Depositary institution: National Institute for Advanced Industrial Science and Technology, International Patent Organism Depositary, Address of depositary institution: Chuo Dai-6,1-1 Higashi 1-Chome, Tsukuba-shi, Ibaraki-ken, Japan, International deposit transfer date: Jul. 8, 2002) that had been cultured at 30° C. for 16 hours in the same medium, followed by shake culturing at 30° C. for 16 hours and 120 strokes/min.
row,Molecule,Formed peptide [mM]
1,CC(C)C[C@H](NC(=O)[C@@H](N)[C@@H](C)O)C(=O)O [L-Thr-L-Leu] (H-Thr-Leu-OH),23.0
2,C[C@H](N)C(=O)N[C@@H](Cc1ccccc1)C(=O)O [L-Ala-L-Phe],62.4
3,CSCC[C@H](N)C(=O)N[C@@H](Cc1ccccc1)C(=O)O [L-Met-L-Phe] (H-Met-Phe-OH),28.5
4,"C[C@H](N)C(=O)N[C@@H](CCC(N)=O)C(=O)O [L-Ala-L-Gln, L-alanyl-L-glutamine] (H-Ala-Gln-OH)",68.0
5,C[C@H](N)C(=O)N[C@@H](CCCN=C(N)N)C(=O)O [L-Ala-L-Arg] (H-Ala-Arg-OH),72.1
6,C[C@H](N)C(=O)N[C@@H](Cc1cnc[nH]1)C(=O)O [L-Ala-L-His] (H-Ala-His-OH),52.1
7,NCC(=O)N[C@@H](Cc1cnc[nH]1)C(=O)O [Gly-L-His] (H-Gly-His-OH),22.1
8,N[C@@H](CO)C(=O)N[C@@H](CO)C(=O)O [L-Ser-L-Ser] (H-Ser-Ser-OH),29.0
9,C[C@H](N)C(=O)N[C@@H](CO)C(=O)O [L-Ala-L-Ser] (H-Ala-Ser-OH),51.3
10,CSCC[C@H](NC(=O)[C@H](C)N)C(=O)O [L-Ala-L-Met] (H-Ala-Met-OH),68.3
11,CC[C@H](C)[C@H](N)C(=O)N[C@@H](CCSC)C(=O)O [L-Ile-L-Met] (H-Ile-Met-OH),8.3
12,CSCC[C@H](NC(=O)[C@@H](N)C(C)C)C(=O)O [L-Val-L-Met] (H-Val-Met-OH),10.5
13,CC(C)C[C@H](NC(=O)[C@H](C)N)C(=O)O [L-Ala-L-Leu] (H-Ala-Leu-OH),38.2

# Test system: Sphingobacterium sp. strain FERM BP-8124 microbial cells
# Assay: Production of L-alanyl-L-glutamine using microbial cells of Sphingobacterium sp.
# Format: cell-based
# Conditions: 0.1 mL of 100 g/L cell suspension + 0.1 mL buffer with 200 mM L-alanyl methyl ester hydrochloride and 400 mM L-glutamine, pH 9.0, 25° C., 120 minutes
# Protocol: A 50 ml medium (pH 7.0) containing 5 g of glucose, 5 g of ammonium sulfate, 1 g of monopotassium phosphate, 3 g of dipotassium phosphate, 0.5 g of magnesium sulfate, 10 g of yeast extract and 10 g of peptone in 1 L was transferred to a 500 mL Sakaguchi flask and sterilized at 115° C. for 15 minutes for culturing Sphingobacterium sp. strain FERM BP-8124 (Depositary institution: National Institute for Advanced Industrial Science and Technology, International Patent Organism Depositary, Address of depositary institution: Chuo Dai-6,1-1 Higashi 1-Chome, Tsukuba-shi, Ibaraki-ken, Japan, International deposit date: Jul. 22, 2002). This medium was then inoculated with one loopful of Sphingobacterium sp. strain FERM BP-8124 (Depositary institution: National Institute for Advanced Industrial Science and Technology, International Patent Organism Depositary, Address of depositary institution: Chuo Dai-6,1-1 Higashi 1-Chome, Tsukuba-shi, Ibaraki-ken, Japan, International deposit date: Jul. 22, 2002) cultured at 30° C. for 24 hours in a slant agar medium (agar: 20 g/L, pH 7.0) containing 5 g of glucose, 10 g of yeast extract, 10 g of peptone and 5 g of NaCl in 1 L, followed by shake culturing at 30° C. for 20 hours and 120 strokes/minute. A 1 ml aliquot of this culture broth was then added to the aforementioned medium (50 ml/500 mL Sakaguchi flask) and cultured at 30° C. for 18 hours. […]
row,Molecule,amount of L-alanyl-L-glutamine produced [mM]
1,"C[C@H](N)C(=O)N[C@@H](CCC(N)=O)C(=O)O [L-Ala-L-Gln, L-alanyl-L-glutamine] (H-Ala-Gln-OH)",62

# Test system: enzyme (SP-Sepharose HP fraction) derived from Sphingobacterium sp. strain FERM BP-8124
# Assay: not given
# Format: biochemical
# Conditions: Table 15-2; carboxy 100 mM, L-Gln 150 mM, 0.33 units, pH 9.0, 25° C., 1.5 hours; 0.1% Tween-80 with L-Tyr-OMe
# Protocol: The following procedure after centrifugal separation was carried out either on ice or at 4° C. Sphingobacterium sp. strain FERM BP-8124 (Depositary institution: National Institute for Advanced Industrial Science and Technology, International Patent Organism Depositary, Address of depositary institution: Chuo Dai-6,1-1 Higashi 1-Chome, Tsukuba-shi, Ibaraki-ken, Japan, International deposit date: Jul. 22, 2002) was cultured in the same manner as Example 21, and the microbial cells were collected by centrifugal separation (10,000 rpm, 15 minutes). After washing 2 g of microbial cells with 20 mM Tris-HCl buffer (pH 7.6), they were suspended in 8 ml of the same buffer and subjected to ultrasonic crushing treatment for 45 minutes at 195 W. This ultrasonic crushing liquid was then centrifuged (10,000 rpm, 30 minutes) to remove the crushed cell fragments and obtain an ultrasonic crushing liquid supernatant. This ultrasonic crushing liquid supernatant was dialyzed overnight against 20 mM Tris-HCl buffer (pH 7.6) followed by removal of the insoluble fraction by ultracentrifugation (50,000 rpm, 30 minutes) to obtain a soluble fraction in the form of the supernatant liquid. The resulting soluble fraction was applied to a Q-Sepharose HP column (manufactured by Amersham) pre-equilibrated with Tris-HCl buffer (pH 7.6), and the active fraction was collected from the non-adsorbed fraction. This active fraction was dialyzed overnight against 20 mM acetate buffer (pH 5.0) followed by removal of the insoluble fraction by centrifugal separation (10,000 rpm, 30 minutes) to obtain a dialyzed fraction in the form of the supernatant liquid. This dialyzed fraction was then applied to an SP-Sepharose HP column (manufactured by Amersham) pre-equilibrated with 20 mM acetate buffer (pH 5.0) to obtain the active fraction in which enzyme was eluted at a linear concentration gradient of the same buffer containing 0 tol M NaCl.
# Substrate specificity was examined for enzyme derived from Sphingobacterium sp. strain FERM BP-8124 (Depositary institution: National Institute for Advanced Industrial Science and Technology, International Patent Organism Depositary, Address of depositary institution: Central. 6, 1-1-1 Higashi, Tsukuba City, Ibaraki Prefecture, Japan, International deposit date: Jul. 22, 2002). 100 μl of 100 mM borate buffer (pH 9.0) containing the various carboxy components at a final concentration of 100 mM and the various amine components at a final concentration of 150 mM shown in Tables 15-1 to 15-4, the SP-Sepharose HP fraction enzyme purified in Example 22 (addition of 0.33 units in the reaction liquid) and 10 mM EDTA were allowed to react at 25° C. for 1.5 hours.
# In addition, hydrochlorides were used for all carboxy components. […]
row,Molecule,Produced peptide [mM]
1,NC(=O)CC[C@H](NC(=O)[C@@H]1CCCN1)C(=O)O [L-Pro-L-Gln] (H-Pro-Gln-OH),1.8
2,NC(=O)CC[C@H](NC(=O)[C@@H](N)CCC(N)=O)C(=O)O [L-Gln-L-Gln] (H-Gln-Gln-OH),0.1
3,CC[C@H](C)[C@H](N)C(=O)N[C@@H](CCC(N)=O)C(=O)O [L-Ile-L-Gln] (H-Ile-Gln-OH),6.4
4,NC(=O)CC[C@H](NC(=O)[C@@H](N)CC(=O)O)C(=O)O [α-L-Asp-L-Gln] (H-Asp-Gln-OH),0.05
5,NCC(=O)N[C@@H](CCC(N)=O)C(=O)O [Gly-L-Gln] (H-Gly-Gln-OH),61.1
6,NC(=O)CC[C@H](NC(=O)[C@@H](N)Cc1ccccc1)C(=O)O [L-Phe-L-Gln],0.8
7,C[C@@H](O)[C@H](N)C(=O)N[C@@H](CCC(N)=O)C(=O)O [L-Thr-L-Gln] (H-Thr-Gln-OH),36.1
8,CC(C)[C@H](N)C(=O)N[C@@H](CCC(N)=O)C(=O)O [L-Val-L-Gln] (H-Val-Gln-OH),8.2
9,NC(=O)CC[C@H](NC(=O)[C@@H](N)CCCN=C(N)N)C(=O)O [L-Arg-L-Gln] (H-Arg-Gln-OH),17.2
10,NC(=O)CC[C@H](NC(=O)[C@@H](N)CO)C(=O)O [L-Ser-L-Gln] (H-Ser-Gln-OH),12.9
11,NC(=O)CC[C@H](NC(=O)[C@@H](N)Cc1ccc(O)cc1)C(=O)O [L-Tyr-L-Gln] (H-Tyr-Gln-OH),0.6
12,CSCC[C@H](N)C(=O)N[C@@H](CCC(N)=O)C(=O)O [L-Met-L-Gln] (H-Met-Gln-OH),32.6

# Test system: not listed separately
# Assay: Comparison of ability to catalyze peptide production with known enzymes
# Conditions: 100 mM L-alanine methyl ester, 200 mM L-glutamine, pH 9.0, 25° C.; amount of enzyme added as in Table 14
# Protocol: The peptide formation ability of the present enzyme was compared with that of known enzymes. Carboxypeptidase Y described in EP 278787A1 and the thiol endopeptidases (ficin, papain, bromelain and chymopapain) described in EP 359399B1 were used for the known enzymes, and they were used in the form of purified enzymes manufactured by Sigma. […] The reaction was carried out by adding enzyme to 100 μl of borate buffer (pH 9.0) containing 100 mM L-alanine methyl ester and 200 mM L-glutamine and allowing to react at 25° C.
# Furthermore, enzyme dissolved in 10 mM acetate buffer (pH 5.0) containing 1 mM EDTA was used for the carboxypeptidase, while enzyme dissolved in 10 mM acetate buffer (pH 5.0) containing 2 mM EDTA, 0.1 M KCl and 5 mM dithiothreitol was used for the thiol endopeptidase.
row,Molecule,L-Ala-L-Gln production rate (mM/mm)
1,Bromelain,0.0062
2,"Chymopapain: thiol endopeptidase described in EP 359399B1, purified enzyme manufactured by Sigma",0.0100
3,Ficin,0.0096
4,"Papain: thiol endopeptidase described in EP 359399B1, purified enzyme manufactured by Sigma (protein, UniProt P00784 134-345, looked up) Papain: IPEYVDWRQKGAVTPVKNQGSCGSCWAFSAVVTIEGIIKIRTGNLNEYSEQELLDCDRRSYGCNGGYPWSALQLVAQYGIHYRNTYPYEGVQRYCRSREKGPYAAKTDGVRQVQPYNEGALLYSIANQPVSVVLEAAGKDFQLYRGGIFVGPCGNKVDHAVAAVGYGPNYILIKNSWGTGWGENGYIRIKRGTGNSYGVCGLYTSSFYPVKN",0.0106
5,"Carboxypeptidase Y: known enzyme described in EP 278787A1, purified enzyme manufactured by Sigma (protein, UniProt P00729 112-532, looked up) Carboxypeptidase Y: KIKDPKILGIDPNVTQYTGYLDVEDEDKHFFFWTFESRNDPAKDPVILWLNGGPGCSSLTGLFFELGPSSIGPDLKPIGNPYSWNSNATVIFLDQPVNVGFSYSGSSGVSNTVAAGKDVYNFLELFFDQFPEYVNKGQDFHIAGESYAGHYIPVFASEILSHKDRNFNLTSVLIGNGLTDPLTQYNYYEPMACGEGGEPSVLPSEECSAMEDSLERCLGLIESCYDSQSVWSCVPATIYCNNAQLAPYQRTGRNVYDIRKDCEGGNLCYPTLQDIDDYLNQDYVKEAVGAEVDHYESCNFDINRNFLFAGDWMKPYHTAVTDLLNQDLPILVYAGDKDFICNWLGNKAWTDVLPWKYDEEFASQKVRNWTASITDEVAGEVKSYKHFTYLRVFNGGHMVPFDVPENALSMVNEWIHGGFSL",0.0257
